Data reported in patent US8436023B2, “Cyclohexyl-azetidinyl antagonists of CCR2” (Janssen Pharmaceutica N.V., priority 2010, dated 2013).
pIC50: −log10 of the molar value.

Target: T1, CCR2 (Homo sapiens, UniProt P41597)
T1 construct: host or cells: THP-1 human monocytic cells
T1 sequence (P41597 1-360 isoform P41597-2): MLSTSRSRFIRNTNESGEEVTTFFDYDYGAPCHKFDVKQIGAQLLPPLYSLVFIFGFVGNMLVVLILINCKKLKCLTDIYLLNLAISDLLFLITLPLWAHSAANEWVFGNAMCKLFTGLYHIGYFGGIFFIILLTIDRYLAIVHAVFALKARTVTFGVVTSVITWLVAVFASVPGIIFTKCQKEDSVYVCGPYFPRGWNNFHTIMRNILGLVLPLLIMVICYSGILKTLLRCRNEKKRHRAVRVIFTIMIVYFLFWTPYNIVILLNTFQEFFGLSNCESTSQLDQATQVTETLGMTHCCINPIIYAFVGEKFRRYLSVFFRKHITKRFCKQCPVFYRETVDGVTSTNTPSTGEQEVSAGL
Test: MCP-1 Receptor Binding Assay in THP-1 Cells
Details: 0.5 nM 125I labeled MCP-1, 2 hours at 30° C., less polar isomer tested where stated, read-out: Inhibition of MCP-1 Binding IC50, CCR2 Binding
Description: MCP-1 Receptor Binding Assay in THP-1 Cells
Human monocytic cell line THP-1 cells were obtained from American Type Culture Collection (Manassas, Va., USA). The THP-1 cells were grown in RPMI-1640 (RPMI: Roswell Park Memorial Institute Medium-cell culture growth media) supplemented with 10% fetal bovine serum in a humidified 5% CO2 atmosphere at 37° C. The cell density was maintained […].
THP-1 (cells were incubated with 0.5 nM ^125I labeled MCP-1 (Perkin-Elmer Life Sciences, Inc. Boston, Mass.) in the presence of varying concentrations of either unlabeled MCP-1 (R & D Systems, Minneapolis, Minn.) or test compound for 2 hours at 30° C. in a 96 well plate. Cells were then harvested onto a filter plate, dried, and 20 μL of Microscint 20 was added to each well. Plates were counted in a TopCount NXT, Microplate Scintillation & Luminescence Counter (Perkin-Elmer Life Sciences, Inc. Boston, Mass.). Blank values (buffer only) were subtracted from all values and drug treated values were compared to vehicle treated values. 1 μM cold MCP-1 was used for nonspecific binding.
Where an IC50 value was not obtained for a particular compound, the percent inhibition is provided at a test concentration of 25 μM.

Row | pIC50 | Compound
1 | 5.85 | Cn1ccnc1C1(O)CCC(N2CC(NC(=O)CNc3nn(C)c4ccc(C(F)(F)F)cc34)C2)CC1 (centres unmarked) [Example 27, N-{1-[4-Hydroxy-4-(1-methyl-1H-imidazol-2-yl)-cyclohexyl]-azetidin-3-yl}-2-(1-methyl-5-trifluoromethyl-1H-indazol-3-ylamino)-acetamide]
2 | 7.72 | Cc1ncc(C2(O)CCC(N3CC(NC(=O)CNc4nn(C)c5ccc(C(F)(F)F)cc45)C3)CC2)s1 (centres unmarked) [Example 28, N-{-[4-Hydroxy-4-(2-methyl-thiazol-5-yl)-cyclohexyl]-azetidin-3-yl}-2-(1-methyl-5-trifluoromethyl-1H-indazol-3-ylamino)-acetamide]
3 | 7.72 | Cn1nc(NCC(=O)NC2CN(C3CCC(O)(c4ccccc4)CC3)C2)c2cc(C(F)(F)F)ccc21 (centres unmarked) [Example 29, N-[1-(4-Hydroxy-4-phenyl-cyclohexyl)-azetidin-3-yl]-2-(1-methyl-5-trifluoromethyl-1H-indazol-3-ylamino)-acetamide]
4 | 8.12 | Cc1ccc(C2(O)CCC(N3CC(NC(=O)CNc4nn(C)c5ccc(C(F)(F)F)cc45)C3)CC2)cn1 (centres unmarked) [Example 30, N-{1-[4-Hydroxy-4-(6-methyl-pyridin-3-yl)-cyclohexyl]-azetidin-3-yl}-2-(1-methyl-5-trifluoromethyl-1H-indazol-3-ylamino)-acetamide]
5 | 7.12 | Cn1nc(NCC(=O)NC2CN(C3CCC(NC(=O)OC(C)(C)C)CC3)C2)c2cc(C(F)(F)F)ccc21 (centres unmarked) [Example 31, (4-{3-[2-(1-Methyl-5-trifluoromethyl-1H-indazol-3-ylamino)-acetylamino]-azetidin-1-yl}-cyclohexyl)-carbamic acid tert-butyl ester]
6 | 7.89 | CCOC(=O)C1CCC(N2CC(NC(=O)CNc3nn(C)c4ccc(C(F)(F)F)cc34)C2)CC1 (centres unmarked) [Example 32, 4-{3-[2-(1-Methyl-5-trifluoromethyl-1H-indazol-3-ylamino)-acetylamino]-azetidin-1-yl}-cyclohexane carboxylic acid ethyl ester]
7 | 7.36 | Cn1nc(NCC(=O)NC2CN(C3CCC(CO)CC3)C2)c2cc(C(F)(F)F)ccc21 (centres unmarked) [Example 33, N-[1-(4-Hydroxymethyl-cyclohexyl)-azetidin-3-yl]-2-(1-methyl-5-trifluoromethyl-1H-indazol-3-ylamino)-acetamide]
8 | 7.57 | CCOCC1CCC(N2CC(NC(=O)CNc3nn(C)c4ccc(C(F)(F)F)cc34)C2)CC1 (centres unmarked) [Example 34, N-[1-(4-Ethoxymethyl-cyclohexyl)-azetidin-3-yl]-2-(1-methyl-5-trifluoromethyl-1H-indazol-3-ylamino)-acetamide]
9 | 6.64 | CCOC1CCC(N2CC(NC(=O)CNc3nn(C)c4ccc(C(F)(F)F)cc34)C2)CC1 (centres unmarked) [Example 36, N-[1-(4-Ethoxy-cyclohexyl)-azetidin-3-yl]-2-(1-methyl-5-trifluoromethyl-1H-indazol-3-ylamino)-acetamide]
10 | 6.87 | C=CCOC1CCC(N2CC(NC(=O)CNc3nn(C)c4ccc(C(F)(F)F)cc34)C2)CC1 (centres unmarked) [Example 37, N-[1-(4-Allyloxy-cyclohexyl)-azetidin-3-yl]-2-(1-methyl-5-trifluoromethyl-1H-indazol-3-ylamino)-acetamide]
11 | 6.82 | Cn1nc(NCC(=O)NC2CN(C3CCC(C#N)CC3)C2)c2cc(C(F)(F)F)ccc21 (centres unmarked) [Example 38, N-[1-(4-Cyano-cyclohexyl)-azetidin-3-yl]-2-(1-methyl-5-trifluoromethyl-1H-indazol-3-ylamino)-acetamide]
12 | 6.42 | Cn1nc(NCC(=O)NC2CN(C3CCC(C(N)=O)CC3)C2)c2cc(C(F)(F)F)ccc21 (centres unmarked) [Example 39, 4-{3-[2-(1-Methyl-5-trifluoromethyl-1H-indazol-3-ylamino)-acetylamino]-azetidin-1-yl}-cyclohexane carboxylic acid amide]
13 | 6.52 | Cn1nc(NCC(=O)NC2CN(C3CCC(C(=O)NCCO)CC3)C2)c2cc(C(F)(F)F)ccc21 (centres unmarked) [Example 40, 4-{3-[2-(1-Methyl-5-trifluoromethyl-1H-indazol-3-ylamino)-acetylamino]-azetidin-1-yl}-cyclohexane carboxylic acid (2-hydroxy-ethyl)-amide]
14 | 7.51 | O=C(CNc1n[nH]c2ccc(C(F)(F)F)cc12)NC1CN(C2CCC(O)(c3cccnc3)CC2)C1 (centres unmarked) [Example 41, N-[1-(4-Hydroxy-4-pyridin-3-yl-cyclohexyl)-azetidin-3-yl]-2-(5-trifluoromethyl-1H-indazol-3-ylamino)-acetamide]
15 | 7.80 | O=C(CNc1n[nH]c2ccc(C(F)(F)F)cc12)NC1CN(C2CCC(O)(c3cncs3)CC2)C1 (centres unmarked) [Example 42, N-[1-(4-Hydroxy-4-thiazol-5-yl-cyclohexyl)-azetidin-3-yl]-2-(5-trifluoromethyl-1H-indazol-3-ylamino)-acetamide]
16 | 8.24 | Cc1ccc(C2(O)CCC(N3CC(NC(=O)CNc4n[nH]c5ccc(C(F)(F)F)cc45)C3)CC2)cn1 (centres unmarked) [Example 43, N-{1-[4-Hydroxy-4-(6-methyl-pyridin-3-yl)-cyclohexyl]-azetidin-3-yl}-2-(5-trifluoromethyl-1H-indazol-3-ylamino)-acetamide]
17 | 7.80 | COc1ccc(C2(O)CCC(N3CC(NC(=O)CNc4n[nH]c5ccc(C(F)(F)F)cc45)C3)CC2)cn1 (centres unmarked) [Example 44, N-{1-[4-Hydroxy-4-(6-methoxy-pyridin-3-yl)-cyclohexyl]-azetidin-3-yl}-2-(5-trifluoromethyl-1H-indazol-3-ylamino)-acetamide]
18 | 8.18 | O=C(CNc1n[nH]c2ccc(C(F)(F)F)cc12)NC1CN(C2CCC(c3ccc4c(c3)OCO4)CC2)C1 (centres unmarked) [Example 45, N-[1-(4-Benzo[1,3]dioxol-5-yl-cyclohexyl)-azetidin-3-yl]-2-(5-trifluoromethyl-1H-indazol-3-ylamino)-acetamide]
19 | 7.92 | NC(=O)Cc1ccc(C2CCC(N3CC(NC(=O)CNc4n[nH]c5ccc(C(F)(F)F)cc45)C3)CC2)cc1 (centres unmarked) [Example 47, 2-[4-(4-{3-[2-(5-Trifluoromethyl-1H-indazol-3-ylamino)-acetylamino]-azetidin-1-yl}-cyclohexyl)-phenyl]-acetamide]
20 | 6.37 | N#CC1CCC(N2CC(NC(=O)CNc3n[nH]c4ccc(C(F)(F)F)cc34)C2)CC1 (centres unmarked) [Example 48, N-[1-(4-Cyano-cyclohexyl)-azetidin-3-yl]-2-(5-trifluoromethyl-1H-indazol-3-ylamino)-acetamide]
21 | 7.57 | CCOC(=O)C1CCC(N2CC(NC(=O)CNc3n[nH]c4ccc(C(F)(F)F)cc34)C2)CC1 (centres unmarked) [Example 50, 4-{3-[2-(5-Trifluoromethyl-1H-indazol-3-ylamino)-acetylamino]-azetidin-1-yl}-cyclohexane carboxylic acid ethyl ester]
22 | 7.06 | CC(C)(C)OC(=O)NC1CCC(N2CC(NC(=O)CNc3n[nH]c4ccc(C(F)(F)F)cc34)C2)CC1 (centres unmarked) [Example 51, (4-{3-[2-(5-Trifluoromethyl-1H-indazol-3-ylamino)-acetylamino]-azetidin-1-yl}-cyclohexyl)-carbamic acid tert-butyl ester]
23 | 6.43 | CC(C)C1CCC(N2CC(NC(=O)CNc3n[nH]c4ccc(C(F)(F)F)cc34)C2)CC1 (centres unmarked) [Example 52, N-[1-(4-Isopropyl-cyclohexyl)-azetidin-3-yl]-2-(5-trifluoromethyl-1H-indazol-3-ylamino)-acet amide]
24 | 7.20 | O=C(CNc1n[nH]c2ccc(C(F)(F)F)cc12)NC1CN(C2CCC(n3ccccc3=O)CC2)C1 (centres unmarked) [Example 53, N-{1-[4-(2-Oxo-2H-pyridin-1-yl)-cyclohexyl]-azetidin-3-yl}-2-(5-trifluoromethyl-1H-indazol-3-ylamino)-acetamide]
25 | 7.46 | Cn1nc(NCC(=O)NC2CN(C3CCC(O)(c4nccs4)CC3)C2)c2cc(OC(F)(F)F)ccc21 (centres unmarked) [Example 54, N-[1-(4-Hydroxy-4-thiazol-2-yl-cyclohexyl)-azetidin-3-yl]-2-(1-methyl-5-trifluoromethoxy-1H-indazol-3-ylamino)-acetamide]
26 | 7.38 | Cn1nc(NCC(=O)NC2CN(C3CCC(O)(c4cncs4)CC3)C2)c2cc(OC(F)(F)F)ccc21 (centres unmarked) [Example 55, N-[1-(4-Hydroxy-4-thiazol-5-yl-cyclohexyl)-azetidin-3-yl]-2-(1-methyl-5-trifluoromethoxy-1H-indazol-3-ylamino)-acetamide]
27 | 7.22 | COc1ccc(C2(O)CCC(N3CC(NC(=O)CNc4nn(C)c5ccc(OC(F)(F)F)cc45)C3)CC2)cn1 (centres unmarked) [Example 57]
28 | 6.47 | CC(C)C1CCC(N2CC(NC(=O)CNc3nn(C)c4ccc(OC(F)(F)F)cc34)C2)CC1 (centres unmarked) [Example 59]
29 | 5.68 | CCOC(=O)C1CCC(N2CC(NC(=O)CNc3nn(C)c4ccc(C(O)C(F)(F)F)cc34)C2)CC1 (centres unmarked) [Example 60, 4-(3-{2-[1-Methyl-5-(2,2,2-trifluoro-1-hydroxy-ethyl)-1H-indazol-3-ylamino]-acetylamino}-azetidin-1-yl)-cyclohexanecarboxylic acid ethyl ester]
